The results in this text go back to patent publication US20250313546A1, “NUCLEIC ACID BINDERS” (UNIVERSITY OF STRATHCLYDE, priority 2022, published 2025).

Assay [1] concerns Enterococcus faecalis (ATCC 51299). As to the kind of experiment: Antibacterial MIC, broth microdilution (CLSI). The format is cell-based. The settings on record: for MIC80: Enterococcus faecalis, ATCC51299, read-out: MIC80 E. faecalis. On the technique in general: In broth dilution the organism is exposed to a series of concentrations in liquid medium.
For the next assay, the system named is C. neoformans (F10025). The conditions noted are these: Cryptococcus neoformans, read-out: MIC99 C. neoformans.
Assay [2] has as its system Escherichia coli (ATCC 25922). As to the kind of experiment: Antibacterial MIC, broth microdilution (CLSI). Format: cell-based. The conditions noted are these: Escherichia coli, ATCC25922; read-out: MIC80 E. coli.
The subject of assay [3] is Candida glabrata (ACPF3309). The conditions noted are these: Nakaseomyces glabratus, read-out: MIC99 Candida glabrata.
Assay [4] concerns Staphylococcus aureus (ATCC 43300). As to the kind of experiment: Antibacterial MIC, broth microdilution (CLSI). The format is cell-based. The settings on record: for MIC80: Staphylococcus aureus, ATCC43300, read-out: MIC80 S. aureus.
Assay [5] deals with PolyAU double stranded RNA. As to the kind of experiment: Fluorescence intercalator displacement (FID) assay, SYBR-safe probe. The conditions noted are these: 20 μM compound, 30° C., lower % = stronger binding. The essentials:
(§1)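 Probe displacement was measured at 30 °C in 1 mM phosphate pH 7.4 containing SybrSafe (12500-fold dilution), 3.76 ng/mL nucleic acid (salmon dsDNA or polyAU dsRNA) and 20 μM compound. Fluorescence loss is normalised between probe-only and probe-plus-nucleic-acid controls.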

Assay [6] deals with Genomic double stranded DNA (salmon). Described as above. The settings on record: 20 μM compound, 30° C., lower % = stronger binding. The essentials: as §1
The subject of assay [7] is A. fumigatus A1160 (MFIG001). The conditions noted are these: Aspergillus fumigatus, read-out: MIC99 A. fumigatus A1160.
For another assay, the system named is T. vaginalis. As to the kind of experiment: Trichomonas resorufin assay. The settings on record: Trichomonas vaginalis, read-out: IC50 T. vaginalis. The format is cell-based.

pIC50: −log10 of the molar value. Values after ≈ are worked out from the molar mass of the structure shown.

In general, MIC80 refers to an inhibitory concentration at the 80% level, which refers to growth in some studies and to a panel of isolates in others. As a reminder, the MIC99 is the lowest concentration that inhibits either 99% of growth or 99% of the strains tested, depending on the study. As usually defined, the pIC50 is the IC50 on a negative log10 scale, so that one unit is a factor of ten.

Procedure for C. neoformans (F10025): The Minimum Inhibitory Concentration (MIC, at 99% inhibition) of the compounds was determined using the broth microdilution method as recommended by EUCAST (EUCAST Definitive Document E.DEF 9.3.2, Method for the determination of broth dilution minimum inhibitory concentrations of antifungal agents for conidia forming moulds and EUCAST Definitive Document E.DEF 7.3.2 Method for the determination of broth dilution minimum inhibitory concentrations of antifungal agents for yeasts).

`CN(C)CCCN(CCCN(C)C)C(=O)c1cc(NC(=O)c2cc(NC(=O)c3ccc(/C=C/c4cnc5ccccc5c4)cc3)cn2C)cn1C` [IVa9, (E)-N,N-bis(3-(dimethylamino)propyl)-1-methyl-4-(1-methyl-4-(4-(2-(quinolin-3-yl)vinyl)benzamido)-1H-pyrrole-2-carboxamido)-1H-pyrrole-2-carboxamide]: the results for the MIC80 in [1], in [2] and in assay [4] were above 100 µM, above 100 µM and 25 to 100 µM (≈ 17.2 to 68.9 µg/mL), respectively. For the same molecule, the MIC99 is 25 to 50 µg/mL (≈ 36.3 to 72.6 µM) in the assay with C. neoformans (F10025), 25 to 50 µg/mL (≈ 36.3 to 72.6 µM) in assay [3] and above 50 µg/mL in assay [7]. The “% Normalised Fluorescence with polyAU RNA” value in assay [5] came out at 4%. In assay [6], the “% Normalised Fluorescence with gDNA” value was determined as 3%.

On to `CCNC(=N)CCNC(=O)c1cc(NC(=O)c2cc(NC(=O)c3ccc(/C=C/c4cccc(OC)c4)cc3)cn2C)cn1C` [Ia22, (E)-N-(3-(ethylamino)-3-iminopropyl)-4-(4-(4-(3-methoxystyryl)benzamido)-1-methyl-1H-pyrrole-2-carboxamido)-1-methyl-1H-pyrrole-2-carboxamide], for which the MIC80 is below 5 µM in [1], above 100 µM in [2] and 5 to 25 µM (≈ 2.98 to 14.9 µg/mL) in assay [4]. Also, in assay [1] (SI, IC50 (μM)/MIC80 (μM), HEK293 cytotoxicity, Alkyl Amidines and NH Pyrroles), the “E. faecalis Selectivity Indices, Group” value is “C (Group C: 5 < SI <= 10)”. Also, the results for the MIC99 (with C. neoformans (F10025); in assay [3]; in assay [7]) were 25 to 50 µg/mL (≈ 42 to 83.9 µM), 5 to 25 µg/mL (≈ 8.39 to 42 µM) and above 50 µg/mL, respectively. In the assay with T. vaginalis, the pIC50 was 5.30 to 6.00. Besides, in [5], the “% Normalised Fluorescence with polyAU RNA” value came to 5%. The “% Normalised Fluorescence with gDNA” value in [6] came out at 3%.

Take `CCCCCCC/N=C(\CCNC(=O)c1cc(NC(=O)c2cc(NC(=O)c3ccc(/C=C/c4ccc(N(C)C)cc4)nc3)cn2C)cn1C)NCCCCCCC` [Ia33, 6-((E)-4-(dimethylamino)styryl)-N-(5-((5-(((E)-3-(heptylamino)-3-(heptylimino)propyl)carbamoyl)-1-methyl-1H-pyrrol-3-yl)carbamoyl)-1-methyl-1H-pyrrol-3-yl)nicotinamide]: the results for the MIC80 in assay [1], in assay [2] and in assay [4] were 25 to 100 µM (≈ 19.5 to 77.8 µg/mL), above 100 µM and 5 to 25 µM (≈ 3.89 to 19.5 µg/mL), respectively. Also, the figures for the MIC99 (in the assay on C. neoformans (F10025); in assay [3]; in assay [7]) were 25 to 50 µg/mL (≈ 32.1 to 64.3 µM), above 50 µg/mL and above 50 µg/mL, respectively. In the assay with T. vaginalis, the pIC50 is 4.30 to 5.30. In addition, the “% Normalised Fluorescence with polyAU RNA” value in [5] was 24%. For the same molecule, in assay [6], the “% Normalised Fluorescence with gDNA” value is listed as 49%.

For the molecule `CCCCCCCCCNC(=N)CCNC(=O)c1cc(NC(=O)c2cc(NC(=O)c3ccc(/C=C/c4cnc5ccccc5c4)cc3)cn2C)cn1C` [Ia36, (E)-N-(3-imino-3-(nonylamino)propyl)-1-methyl-4-(1-methyl-4-(4-(2-(quinolin-3-yl)vinyl)benzamido)-1H-pyrrole-2-carboxamido)-1H-pyrrole-2-carboxamide], the MIC80 in [1] was 25 to 100 µM (≈ 17.9 to 71.5 µg/mL); in assay [2] it was above 100 µM; in assay [4], 5 to 25 µM (≈ 3.57 to 17.9 µg/mL). The results for the MIC99 (with C. neoformans (F10025); in [3]; in assay [7]) were above 50 µg/mL, 25 to 50 µg/mL (≈ 35 to 69.9 µM) and above 50 µg/mL, respectively. For the same molecule, the pIC50 in the assay with T. vaginalis was 4.30 to 5.30. The “% Normalised Fluorescence with polyAU RNA” value in [5] is reported as 4%. For the same molecule, in assay [6], the “% Normalised Fluorescence with gDNA” value stood at 11%.

Consider `CCCCCCC/N=C(/CCNC(=O)c1cc(NC(=O)c2cc(NC(=O)c3ccc(/C=C/c4cnc5ccccc5c4)cc3)cn2C)cn1C)NCCCCCCC` [Ia37, N—((Z)-3-(heptylamino)-3-(heptylimino)propyl)-1-methyl-4-(1-methyl-4-(4-((E)-2-(quinolin-3-yl)vinyl)benzamido)-1H-pyrrole-2-carboxamido)-1H-pyrrole-2-carboxamide], for which the results for the MIC80 in [1], in assay [2] and in [4] were 25 to 100 µM (≈ 19.6 to 78.5 µg/mL), above 100 µM and 5 to 25 µM (≈ 3.93 to 19.6 µg/mL), respectively. The MIC99 was 25 to 50 µg/mL (≈ 31.8 to 63.7 µM) with C. neoformans (F10025), above 50 µg/mL in assay [3] and above 50 µg/mL in assay [7]. Also, in the assay with T. vaginalis, the pIC50 was 4.30 to 5.30. Moreover, the “% Normalised Fluorescence with polyAU RNA” value in [5] is 68%. The “% Normalised Fluorescence with gDNA” value in [6] is reported as 16%.

On to `CCCC/N=C(\CCNC(=O)c1cc(NC(=O)c2cc(NC(=O)c3ccc(/C=C/c4cnc5ccccc5c4)cc3)cn2C)cn1C)NCCCC` [Ia38, N—((E)-3-(butylamino)-3-(butylimino)propyl)-1-methyl-4-(1-methyl-4-(4-((E)-2-(quinolin-3-yl)vinyl)benzamido)-1H-pyrrole-2-carboxamido)-1H-pyrrole-2-carboxamide], for which the MIC80 in assay [1] is 25 to 100 µM (≈ 17.5 to 70.1 µg/mL); in assay [2], above 100 µM; in assay [4], below 5 µM. In addition, the MIC99 was 25 to 50 µg/mL (≈ 35.7 to 71.3 µM) in the assay with C. neoformans (F10025), 5 to 25 µg/mL (≈ 7.13 to 35.7 µM) in assay [3] and above 50 µg/mL in [7]. Also, in the assay with T. vaginalis, the pIC50 is 4.30 to 5.30. The “% Normalised Fluorescence with polyAU RNA” value in assay [5] is 4%. In addition, the “% Normalised Fluorescence with gDNA” value in assay [6] was 10%.

Take `CCCC/N=C(\CCNC(=O)c1cc(NC(=O)c2cc(NC(=O)c3ccc(/C=C/c4ccc(N(C)C)cc4)nc3)cn2C)cn1C)NCCCC` [Ia39, N-(5-((5-(((E)-3-(butylamino)-3-(butylimino)propyl)carbamoyl)-1-methyl-1H-pyrrol-3-yl)carbamoyl)-1-methyl-1H-pyrrol-3-yl)-6-((E)-4-(dimethylamino)styryl)nicotinamide]: the MIC80 is 25 to 100 µM (≈ 17.3 to 69.4 µg/mL) in [1], above 100 µM in assay [2] and below 5 µM in assay [4]. Besides, the MIC99 is 25 to 50 µg/mL (≈ 36 to 72.1 µM) in the assay on C. neoformans (F10025), 25 to 50 µg/mL (≈ 36 to 72.1 µM) in assay [3] and above 50 µg/mL in assay [7]. The pIC50 in the assay on T. vaginalis is 4.30 to 5.30. For the same molecule, the “% Normalised Fluorescence with polyAU RNA” value in assay [5] was 43%. Further, the “% Normalised Fluorescence with gDNA” value in [6] amounted to 50%.

For the molecule `Cn1cc(NC(=O)c2cc(NC(=O)c3ccc(/C=C/c4cnc5ccccc5c4)cc3)cn2C)cc1C(=O)NCCC(=N)NCCC1CCOCC1` [Ia44, (E)-N-(3-imino-3-((2-(tetrahydro-2H-pyran-4-yl)ethyl)amino)propyl)-1-methyl-4-(1-methyl-4-(4-(2-(quinolin-3-yl)vinyl)benzamido)-1H-pyrrole-2-carboxamido)-1H-pyrrole-2-carboxamide], the MIC80 in assay [1] is 5 to 25 µM (≈ 3.5 to 17.5 µg/mL); in assay [2], above 100 µM; in assay [4] it was 5 to 25 µM (≈ 3.5 to 17.5 µg/mL). Further, the MIC99 was 25 to 50 µg/mL (≈ 35.7 to 71.3 µM) in the assay with C. neoformans (F10025), 5 to 25 µg/mL (≈ 7.13 to 35.7 µM) in assay [3] and above 50 µg/mL in [7]. In the assay on T. vaginalis, the pIC50 was 4.30 to 5.30. In assay [5], the “% Normalised Fluorescence with polyAU RNA” value is recorded as 19%. In assay [6], the “% Normalised Fluorescence with gDNA” value was determined as 16%.

In the case of `CCCCCCCCC[N+](C)(C)CCNC(=O)c1cc(NC(=O)c2cc(NC(=O)c3ccc(/C=C/c4cnc5ccccc5c4)cc3)cn2C)cn1C` [Ic8, (E)-N,N-dimethyl-N-(2-(1-methyl-4-(1-methyl-4-(4-(2-(quinolin-3-yl)vinyl)benzamido)-1H-pyrrole-2-carboxamido)-1H-pyrrole-2-carboxamido)ethyl)nonan-1-aminium], the results for the MIC80 in assay [1], in [2] and in assay [4] were above 100 µM, above 100 µM and below 5 µM, respectively. The MIC99 in the assay with C. neoformans (F10025) was 25 to 50 µg/mL; in [3] it was 5 to 25 µg/mL; in assay [7] it was above 50 µg/mL. Besides, the pIC50 with T. vaginalis was 4.30 to 5.30. The “S. aureus Selectivity Indices, Group” value in [4] (SI, IC50 (μM)/MIC80 (μM), HEK293 cytotoxicity, Quaternary ammoniums) is listed as “C (Group C: 5 < SI <= 10)”. In assay [4] (SI, IC50 (μM)/MIC80 (μM), HEK293 cytotoxicity, numeric value), the “S. aureus Selectivity Index (SI)” value stood at 6.

On to `CCCCCCCCCCC[N+](C)(C)CCNC(=O)c1cc(NC(=O)c2cc(NC(=O)c3ccc(/C=C/c4cnc5ccccc5c4)cc3)cn2C)cn1C` [Ic10, (E)-N,N-dimethyl-N-(2-(1-methyl-4-(1-methyl-4-(4-(2-(quinolin-3-yl)vinyl)benzamido)-1H-pyrrole-2-carboxamido)-1H-pyrrole-2-carboxamido)ethyl)undecan-1-aminium], for which the MIC80 in assay [1] was above 100 µM; in assay [2] it was above 100 µM; in assay [4], 5 to 25 µM. Besides, the MIC99 in the assay with C. neoformans (F10025) is above 50 µg/mL; in assay [3] it was 25 to 50 µg/mL; in assay [7] it was above 50 µg/mL. For the same molecule, in the assay on T. vaginalis, the pIC50 is 4.30 to 5.30.

As to `CCCCCCCCCCCC[N+](C)(C)CCNC(=O)c1cc(NC(=O)c2cc(NC(=O)c3ccc(/C=C/c4cnc5ccccc5c4)cc3)cn2C)cn1C` [Ic11, (E)-N,N-dimethyl-N-(2-(1-methyl-4-(1-methyl-4-(4-(2-(quinolin-3-yl)vinyl)benzamido)-1H-pyrrole-2-carboxamido)-1H-pyrrole-2-carboxamido)ethyl)dodecan-1-aminium], the MIC80 in assay [1] is 25 to 100 µM; in assay [2] it was above 100 µM; in [4] it was 5 to 25 µM. Further, the MIC99 was above 50 µg/mL in the assay with C. neoformans (F10025), 5 to 25 µg/mL in assay [3] and above 50 µg/mL in assay [7]. In addition, the pIC50 with T. vaginalis is 4.30 to 5.30.
